The test system of assay [1] is hGLP1R^A316T-SmBiT versus hGLP1R^WT-SmBiT. As to the kind of experiment: Mini-Gs recruitment by NanoBiT complementation. Format: cell-based, human. Conditions: serial doses up to 100 nM; n = 5; Fig. 7L. Here is the method: For mini-Gs recruitment, INS-1 832/3 Glp1r^−/− cells were seeded in 6-cm dishes and transiently cotransfected with 1.7 μg each of hGLP1R^WT or ^A316T-SmBiT and LgBiT-mini-Gs constructs for 24 hours. Cells were then detached, resuspended in Hanks’ balanced salt solution (HBSS) containing NanoGlo Live Cell Reagent (1:20; Promega) with furimazine, and seeded onto white 96-well half-area plates. Baseline luminescence was immediately recorded over 8 min at 37°C in a Flexstation 3 plate reader (Molecular Devices) and for a further 30 min after GLP-1RA addition at serial doses up to 100 nM. Readings were taken every 30 s and normalized to average well baseline, and average vehicle-induced signal was subtracted to establish the agonist-induced effect. To measure β-arrestin 2 recruitment, cells were processed as above with slight modifications: INS-1 832/3 Glp1r^−/− cells were cotransfected with 1.77 μg each of hGLP1R^WT or ^A316T-SmBiT and LgBiT–β-arrestin 2 plasmids for 24 hours, and GLP-1RAs were added at serial doses up to 1 μM. AUCs were calculated for each agonist concentration and fitted to log(agonist) versus response four-parameter curves using GraphPad Prism 10.1.2, with errors propagated for mini-Gs over β-arrestin 2 recruitment bias calculations.

Assay [2] deals with SNAP/FLAG-hGLP1R^A316T versus ^WT. Nature of the assay: Real-time cytosolic calcium assay (Cal-520, AM) in transduced hGLP1R^-/- mouse islets. Format: cell-based, human. To be noted: 100 nM; 6 mM glucose; AUC; n = 3-4; fig. S7D-H. As to the method: signal serially monitored for 30 min. The TR-FRET ratio, i.e. the ratio of fluorescence intensities at 590 and 490 nm, was considered indicative of the proximity of the GLP-1R ECD to the plasma membrane.
Baseline-normalised AUCs were used to generate concentration– response curves fitted using GraphPad Prism 10.1.2, with logEC50 and Emax calculated for each replicate dose response curve.
Real- time c ytosolic c alcium a ssay hGLP1R-/- mouse islets were transduced with pAV- SNAP/FLAG-hGLP1RWT or A316T adenoviruses for 24 hours, labelled with the Ca2+ dye Cal-520, AM (4.5 μM; Stratech) diluted in KBRH buffer containing 6 mM glucose for 1 hour and encased in Matrigel onto […] glass bottom MatTek dishes. Islets were then imaged every 6 s at 488 nm using a Nikon Eclipse Ti microscope with an ORCA-Flash 4.0 camera (Hamamatsu) and Metamorph software (Molecular Devices) at 37°C on a heated stage before and after addition of the indicated GLP-1RA followed by 11 mM glucose and then 20 mM KCl at the indicated time points. Raw fluorescence intensity traces from islet ROIs were extracted using Fiji. Responses were plotted relative to the average fluorescence intensity during the 6 mM glucose baseline period, before agonist addition, and AUCs separately calculated for the GLP- 1RA + 6 mM and 11 mM glucose […]
Isolation o f detergent-resistant membrane (D RM) fractions
To purify lipid rafts, […] fractions were isolated from INS-1 832/3 Glp1r-/- SNAP/FLAG-hGLP1RWT or A316T cells by ultracentrifugation based on their insolubility in non-ionic detergents at 4°C and their low density because of their high lipid-to- protein ratio. Cells seeded onto 6-cm dishes were stimulated ± 100 […]
mM tris-HCl, pH 7.0 buffer supplemented with cOmplete EDTA-free protease inhibitor cocktail (Roche) and phosphatase inhibitor cocktail 2 (Sigma-Aldrich) for 10-15 minutes on a rocking platform at 4°C. The cell suspension was collected and homogenised by passing through a 21-gauge needle, followed by ultracentrifugation at 63,000 g f or 1 hour at 4°C with a Sorvall Discovery M120 ultracentrifuge. Pellets

Assay [3] shares this test system. As to the kind of experiment: Real-time cAMP imaging (cADDis) in INS-1 832/3 sublines. In kind it is cell-based, rat. To be noted: 100 nM, n = 4, no significant differences, fig. S8K-P. Here is the method:
To measure cAMP, hGLP1R^A316T/A316T versus ^+/+ control mouse islets, or INS-1 832/3 SNAP/FLAG-hGLP1R^WT versus ^A316T cells cultured on glass-bottom MatTek dishes, were transduced with cADDis (Green Gs cADDis cAMP Kit, Montana Molecular), a baculovirus genetically encoding a fluorescent cAMP in situ biosensor, following the manufacturer’s instructions. Transduced islets were subsequently encased into Matrigel on glass-bottom MatTek dishes 24 hours after transduction, and both islets and cells were imaged at λex = 488 nm in a Nikon Eclipse Ti spinning disk confocal microscope and 20× objective with an ORCA-Flash 4.0 camera (Hamamatsu) for time-lapse recordings with image acquisitions every 6 s in KRBH buffer containing 0.1% (w/v) BSA and 6 mM glucose for 2 min to record the baseline, with 100 nM GLP-1RA subsequently added by manual pipetting, and islets imaged for a further 5 min before addition of 100 μM IBMX + 10 μM forskolin for the final 2 min of the acquisition. Raw green fluorescence intensity traces were extracted from whole islet regions of interest (ROIs) using Fiji, and mean intensities were calculated for each ROI and time point. Responses were plotted relative to average fluorescence intensity per islet during the baseline period before GLP-1RA addition.

Assay [4] shares this test system. As to the kind of experiment: GLP-1R recycling assay. To be noted: INS-1 832/3 sublines; 1 hour agonist, 1 and 3 hours recycling; n = 3-4; Fig. 7H. Format: cell-based, human. Here is the method:
INS-1 832/3 Glp1r^−/− SNAP/FLAG-hGLP1R^WT or ^A316T cells were seeded as above for 24 hours, washed with HBSS, pretreated with vehicle or GLP-1RA for 1 hour at 37°C in complete medium, washed again, and treated with 100 nM exendin-4–TMR in reverse time order for 3 hours and 1 hour at 37°C in complete medium. Plates were then promptly imaged after washing as above. In this assay, total exendin-4–TMR uptake is indicative of residual surface receptor at the end of the GLP-1RA treatment and cumulative reappearance of the surface receptor during the recycling period.

As for exendin-4, in assay [1], the “A316T mini-Gs recruitment versus WT, log(Emax/EC50)” value is “No significant changes”. Further, the “Agonist-induced Ca^2+ responses, A316T versus WT” value in assay [2] is given as “not significantly different”. Besides, the “cAMP responses, A316T versus WT” value in assay [3] is given as “reduced responses”. Besides, the “A316T receptor recycling to the plasma membrane versus WT” value in assay [4] is recorded as “not different from WT”.

Regarding GLP-1(7-36)NH2, in assay [1], the “A316T mini-Gs recruitment versus WT, log(Emax/EC50)” value was “No significant changes”. For the same substance, the “Agonist-induced Ca^2+ responses, A316T versus WT” value in assay [2] is “not significantly different”. Further, the “cAMP responses, A316T versus WT” value in assay [3] is on record as “tendency for increased cAMP”. Further, the “A316T receptor recycling to the plasma membrane versus WT” value in assay [4] was “significantly reduced”.

With exendin-F1, in assay [1], the “A316T mini-Gs recruitment versus WT, log(Emax/EC50)” value is given as “increased potency”. The “Agonist-induced Ca^2+ responses, A316T versus WT” value in assay [2] is recorded as “increased”. Also, the “cAMP responses, A316T versus WT” value in assay [3] was “tendency for increased cAMP”. In assay [4], the “A316T receptor recycling to the plasma membrane versus WT” value was “not different from WT”.

The record behind these values is publication PMC13267291, “In vivo functional profiling and structural characterization of the human GLP1R A316T variant” (Science Advances, 2026).
